Source: PubChem BioAssay AID248 (DTP/NCI, 2004)
Values joined by “and” are separate entries in the source; they are usually repeats but may differ in a detail not shown here. Equal entries are not always repeated. Inconclusive results and toxic doses are left out. Cut-off read from the data, not from the text of the source: active = T/C of 150% or more; inactive = T/C below 125%.

System: L1210 leukemia ip in BDF1 mice, survival T/C
Test: NCI In Vivo Anticancer Drug Screen. Data for tumor model L1210 Leukemia (intraperitoneal) in B6D2F1 (BDF1) mice
Details: endpoint: mean survival time, higher = longer survival
How it was run: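 Ratio derived from survival: compound-dosed mice over vehicle-dosed mice, all bearing a transplantable tumor.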

[1] = dose: 100.0 mg/kg/injection, schedule: Q01DX001 (ip), vehicle: carboxymethylcellulose (CMC)
[2] = dose: 200.0 mg/kg/injection, schedule: Q01DX001 (ip), vehicle: carboxymethylcellulose (CMC)
[3] = dose: 400.0 mg/kg/injection, schedule: Q01DX001 (ip), vehicle: carboxymethylcellulose (CMC)
[4] = dose: 100.0 mg/kg/injection, schedule: Q01DX009 (ip), vehicle: Klucel (hydroxypropylcellulose) (HPC)
[5] = dose: 100.0 mg/kg/injection, schedule: Q04DX003 (ip), vehicle: Klucel (hydroxypropylcellulose) (HPC)
[6] = dose: 200.0 mg/kg/injection, schedule: Q01DX009 (ip), vehicle: Klucel (hydroxypropylcellulose) (HPC)
[7] = dose: 200.0 mg/kg/injection, schedule: Q04DX003 (ip), vehicle: Klucel (hydroxypropylcellulose) (HPC)
[8] = dose: 400.0 mg/kg/injection, schedule: Q01DX009 (ip), vehicle: Klucel (hydroxypropylcellulose) (HPC)
[9] = dose: 400.0 mg/kg/injection, schedule: Q04DX003 (ip), vehicle: Klucel (hydroxypropylcellulose) (HPC)
[10] = dose: 100.0 mg/kg/injection, schedule: Q04DX003 (ip), vehicle: saline with Tween-80
[11] = dose: 200.0 mg/kg/injection, schedule: Q04DX003 (ip), vehicle: saline with Tween-80
[12] = dose: 400.0 mg/kg/injection, schedule: Q04DX003 (ip), vehicle: saline with Tween-80
[13] = dose: 75.0 mg/kg/injection, schedule: Q01DX001 (ip), vehicle: saline
[14] = dose: 100.0 mg/kg/injection, schedule: Q01DX001 (ip), vehicle: saline
[15] = dose: 200.0 mg/kg/injection, schedule: Q01DX001 (ip), vehicle: saline
[16] = dose: 100.0 mg/kg/injection, schedule: Q04DX002 (ip), vehicle: saline
[17] = dose: 200.0 mg/kg/injection, schedule: Q04DX002 (ip), vehicle: saline
[18] = dose: 400.0 mg/kg/injection, schedule: Q04DX002 (ip), vehicle: saline
[19] = dose: 50.0 mg/kg/injection, schedule: Q04DX003 (ip), vehicle: saline
[20] = dose: 100.0 mg/kg/injection, schedule: Q04DX003 (ip), vehicle: saline
[21] = dose: 200.0 mg/kg/injection, schedule: Q04DX003 (ip), vehicle: saline

Measured: T/C

CC(C)CC(N)C(=O)O (stereo not drawn)
inactive: [1] 87 % of control | [2] 91 % of control | [3] 91 % of control

O=C1c2cc([N+](=O)[O-])ccc2-c2c1cccc2[N+](=O)[O-]
inactive: dose: 18.75 mg/kg/injection, schedule: Q01DX001 (ip), vehicle: Klucel (hydroxypropylcellulose) (HPC) 96 % of control | dose: 37.5 mg/kg/injection, schedule: Q01DX001 (ip), vehicle: Klucel (hydroxypropylcellulose) (HPC) 91 % of control | dose: 75.0 mg/kg/injection, schedule: Q01DX001 (ip), vehicle: Klucel (hydroxypropylcellulose) (HPC) 96 % of control | dose: 150.0 mg/kg/injection, schedule: Q01DX001 (ip), vehicle: Klucel (hydroxypropylcellulose) (HPC) 98 % of control | dose: 300.0 mg/kg/injection, schedule: Q01DX001 (ip), vehicle: Klucel (hydroxypropylcellulose) (HPC) 87 % of control

O=NN(CCBr)C(=O)Nc1ccccc1
active: dose: 111.0 mg/kg/injection, schedule: Q01DX001 (ip), vehicle: carboxymethylcellulose (CMC) 153 % of control | dose: 222.0 mg/kg/injection, schedule: Q01DX001 (ip), vehicle: carboxymethylcellulose (CMC) 161 % of control
inactive: dose: 444.0 mg/kg/injection, schedule: Q01DX001 (ip), vehicle: carboxymethylcellulose (CMC) 124 % of control

COC1(OC)C2(Cl)CCC1(Cl)C(Cl)=C2Cl
inactive: dose: 100.0 mg/kg/injection, schedule: Q01DX001 (ip), vehicle: other 98 % of control | dose: 100.0 mg/kg/injection, schedule: Q01DX001 (ip), vehicle: saline with Tween-80 100 % of control | [4] 100 % of control | [5] 102 % of control | dose: 200.0 mg/kg/injection, schedule: Q01DX001 (ip), vehicle: other 98 % of control | dose: 200.0 mg/kg/injection, schedule: Q01DX001 (ip), vehicle: saline with Tween-80 100 % of control | [6] 103 % of control | [7] 94 % of control | dose: 400.0 mg/kg/injection, schedule: Q01DX001 (ip), vehicle: other 92 % of control | dose: 400.0 mg/kg/injection, schedule: Q01DX001 (ip), vehicle: saline with Tween-80 97 % of control | [8] 90 % of control | [9] 96 % of control

O=c1[nH]nc(-c2ccc(Br)cc2)s1
inactive: [5] 101 % of control | [7] 95 % of control | [9] 98 % of control

C#CC(C)ON1C(=O)c2ccccc2C1=O (stereo not drawn)
inactive: dose: 100.0 mg/kg/injection, schedule: Q01DX009 (ip), vehicle: saline sonified 96 % of control | [10] 115 % of control | dose: 200.0 mg/kg/injection, schedule: Q01DX009 (ip), vehicle: saline sonified 97 % of control | [11] 114 % of control | dose: 400.0 mg/kg/injection, schedule: Q01DX009 (ip), vehicle: saline sonified 104 % of control | [12] 109 % of control

CC(C)(COC(=O)c1ccc(N)cc1)NC1CCCCC1
inactive: [13] 96 % of control

O=C1NC2C3C=CC(C3)C12 (stereo not drawn)
inactive: dose: 25.0 mg/kg/injection, schedule: Q04DX002 (ip), vehicle: Klucel (hydroxypropylcellulose) (HPC) 114 % of control | dose: 50.0 mg/kg/injection, schedule: Q04DX002 (ip), vehicle: Klucel (hydroxypropylcellulose) (HPC) 93 % of control | dose: 100.0 mg/kg/injection, schedule: Q04DX002 (ip), vehicle: Klucel (hydroxypropylcellulose) (HPC) 119 % of control and 86 % of control

Cc1nc(N)c2c(n1)C(C)N(C(=O)c1ccccc1)C2 (stereo not drawn)
inactive: [1] 103 % of control | [2] 100 % of control | [3] 97 % of control

CSc1nc(N)nc2c1nnn2C1OC(CO)C(O)C1O (stereo not drawn)
inactive: [14] 105 % of control | [15] 105 % of control

CC(=O)C1CCCC23CC(CC12)C(C)(C)C3OC=O (stereo not drawn)
inactive: [4] 96 % of control | [5] 90 % of control | [6] 100 % of control | [7] 92 % of control | [8] 107 % of control | [9] 95 % of control

C/C(=N\Nc1nc2ccccc2s1)c1ccc2c(c1)Sc1ccccc1O2
inactive: dose: 75.0 mg/kg/injection, schedule: Q04DX003 (ip), vehicle: saline 87 % of control | dose: 150.0 mg/kg/injection, schedule: Q04DX003 (ip), vehicle: saline 90 % of control

CC1(C)OC2COC3(COC(C)(C)O3)C(O)C2O1 (stereo not drawn)
inactive: [16] 96 % of control | [17] 100 % of control | [18] 104 % of control

O=C(Nc1ccc(S(=O)(=O)NC2CCCCC2)cc1)OC(c1ccccc1)c1ccccc1
inactive: [14] 96 % of control | [15] 94 % of control | dose: 400.0 mg/kg/injection, schedule: Q01DX001 (ip), vehicle: saline 100 % of control

COc1cc2c(cc1NC(=O)C(F)(F)F)-c1ccc(NC(=O)C(F)(F)F)cc1C2
inactive: dose: 75.0 mg/kg/injection, schedule: Q01DX001 (ip), vehicle: carboxymethylcellulose (CMC) 88 % of control | dose: 150.0 mg/kg/injection, schedule: Q01DX001 (ip), vehicle: carboxymethylcellulose (CMC) 98 % of control | dose: 300.0 mg/kg/injection, schedule: Q01DX001 (ip), vehicle: carboxymethylcellulose (CMC) 90 % of control

[C-]#[N+]C1(C)CC1(c1ccccc1)c1ccccc1 (stereo not drawn)
inactive: [19] 103 % of control | [20] 110 % of control | [21] 95 % of control

c1ccc(Cc2[nH]c3ccccc3c2-c2ccccc2)cc1
inactive: dose: 100.0 mg/kg/injection, schedule: Q01DX009 (ip), vehicle: saline with Tween-80 93 % of control | dose: 100.0 mg/kg/injection, schedule: Q04DX002 (ip), vehicle: saline with Tween-80 109 % of control | dose: 200.0 mg/kg/injection, schedule: Q01DX009 (ip), vehicle: saline with Tween-80 87 % of control | dose: 200.0 mg/kg/injection, schedule: Q04DX002 (ip), vehicle: saline with Tween-80 100 % of control | dose: 400.0 mg/kg/injection, schedule: Q04DX002 (ip), vehicle: saline with Tween-80 90 % of control

COc1ccc2c(=O)cc(-c3ccccc3)[nH]c2c1
inactive: [19] 100 % of control | dose: 100.0 mg/kg/injection, schedule: Q01DX009 (ip), vehicle: other 122 % of control | [20] 106 % of control | dose: 200.0 mg/kg/injection, schedule: Q01DX009 (ip), vehicle: other 123 % of control | [21] 101 % of control | dose: 400.0 mg/kg/injection, schedule: Q04DX003 (ip), vehicle: saline 104 % of control

COC(=O)C(Br)C(Br)N1C(=O)c2ccccc2C1=O (stereo not drawn)
inactive: [4] 98 % of control | [5] 102 % of control | [6] 96 % of control | [7] 105 % of control | [8] 102 % of control | [9] 97 % of control

O=C(O)c1cc2c3c(c1)CCCN3CCC2
inactive: dose: 50.0 mg/kg/injection, schedule: Q04DX003 (ip), vehicle: saline with Tween-80 100 % of control | [10] 100 % of control | [11] 102 % of control | [12] 91 % of control

O=S(=O)(O)CCl
inactive: [16] 106 % of control | [17] 120 % of control | [18] 102 % of control

NC1(C(=O)O)CC(O)(c2ccccc2)C(O)(c2ccccc2)C1 (stereo not drawn)
inactive: [14] 88 % of control | [15] 93 % of control

Cc1ccc(C2NC(=S)N3C(c4ccc(C)cc4)NC(=S)N23)cc1 (stereo not drawn)
inactive: dose: 100.0 mg/kg/injection, schedule: Q01DX009 (ip), vehicle: gum acacia 105 % of control | dose: 100.0 mg/kg/injection, schedule: Q04DX003 (ip), vehicle: gum acacia 95 % of control | dose: 200.0 mg/kg/injection, schedule: Q01DX009 (ip), vehicle: gum acacia 100 % of control | dose: 200.0 mg/kg/injection, schedule: Q04DX003 (ip), vehicle: gum acacia 90 % of control | dose: 400.0 mg/kg/injection, schedule: Q01DX009 (ip), vehicle: gum acacia 91 % of control | dose: 400.0 mg/kg/injection, schedule: Q04DX003 (ip), vehicle: gum acacia 95 % of control

Cc1ccc(S(=O)(=O)N(N)C(=O)c2ccccc2)cc1
inactive: [13] 86 % of control

Cc1ccc(S(=O)(=O)SC(Cl)(Cl)Cl)cc1
inactive: dose: 50.0 mg/kg/injection, schedule: Q01DX009 (ip), vehicle: saline 105 % of control

CC(C)CCC(O)c1cnc(OCc2ccccc2)nc1OCc1ccccc1 (stereo not drawn)
inactive: [5] 92 % of control | [7] 95 % of control | [9] 100 % of control
